Source: ChEMBL document CHEMBL4610123, “Structure-Based Drug Discovery of N-((R)-3-(7-Methyl-1H-indazol-5-yl)-1-oxo-1-(((S)-1-oxo-3-(piperidin-4-yl)-1-(4-(pyridin-4-yl)piperazin-1-yl)propan-2-yl)amino)propan-2-yl)-2'-oxo-1',2'-dihydrospiro[piperidine-4,4'-pyrido[2,3-d][1,3]oxazine]-1-carboxamide (HTL22562): A Calcitonin Gene-Related …” (J Med Chem, 2020)
≈ marks a conversion by molar mass, not a printed value.

Experiments:
[1] = Toxicity in rat assessed as behavioral changes at 0.1 to 1 mg/kg/day, sc administered for 10 days; assay type: organism-based; conditions: in vivo, 240 h
[2] = Half life in rat hepatocytes; assay type: ADME, cell-based, Hepatocyte
[3] = Volume of distribution at steady state in rat at 2 mg/kg, iv; assay type: ADME, organism-based; conditions: in vivo, read-out: Vdss
[4] = Volume of distribution at steady state in dog at 0.5 mg/kg, iv; assay type: ADME, organism-based, Canis lupus familiaris; conditions: in vivo, read-out: Vdss
[5] = Volume of distribution at steady state in cynomolgus monkey at 0.5 mg/kg, iv; assay type: ADME, organism-based, Macaca fascicularis; conditions: in vivo, read-out: Vdss
[6] = tested on: CALCRL/RAMP2 (adrenomedullin AM1 receptor) (Homo sapiens); assay: Antagonist activity at human adrenomedullin-1 receptor
[7] = molecular target: T1, Mas-related G-protein coupled receptor member X2 (Homo sapiens, UniProt Q96LB1); assay: Agonist activity at MRGPX2 (unknown origin)
T1 sequence (Q96LB1 whole entry): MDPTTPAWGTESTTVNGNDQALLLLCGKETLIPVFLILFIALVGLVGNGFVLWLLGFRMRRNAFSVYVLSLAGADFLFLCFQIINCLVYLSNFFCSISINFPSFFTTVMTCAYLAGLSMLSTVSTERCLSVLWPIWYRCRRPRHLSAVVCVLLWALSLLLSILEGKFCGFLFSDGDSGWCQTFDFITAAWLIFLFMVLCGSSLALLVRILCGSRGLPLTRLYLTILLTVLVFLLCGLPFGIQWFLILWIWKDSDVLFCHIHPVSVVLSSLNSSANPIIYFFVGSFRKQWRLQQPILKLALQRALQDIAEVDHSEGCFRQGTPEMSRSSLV

[8] = Oral bioavailability in cynomolgus monkey at 0.013 mg/kg; assay type: ADME, organism-based, Macaca fascicularis; conditions: in vivo
[9] = Clearance in cynomolgus monkey at 0.5 mg/kg, iv; assay type: ADME, organism-based, Macaca fascicularis; conditions: in vivo
[10] = Oral bioavailability in cynomolgus monkey at 0.5 mg/kg; assay type: ADME, organism-based, Macaca fascicularis; conditions: in vivo
Cytochrome P450 2C8 = molecular target: T2, Cytochrome P450 2C8 (Homo sapiens, UniProt P10632); assay: Inhibition of CYP2C8 (unknown origin); assay type: ADME
T2 sequence (P10632 whole entry): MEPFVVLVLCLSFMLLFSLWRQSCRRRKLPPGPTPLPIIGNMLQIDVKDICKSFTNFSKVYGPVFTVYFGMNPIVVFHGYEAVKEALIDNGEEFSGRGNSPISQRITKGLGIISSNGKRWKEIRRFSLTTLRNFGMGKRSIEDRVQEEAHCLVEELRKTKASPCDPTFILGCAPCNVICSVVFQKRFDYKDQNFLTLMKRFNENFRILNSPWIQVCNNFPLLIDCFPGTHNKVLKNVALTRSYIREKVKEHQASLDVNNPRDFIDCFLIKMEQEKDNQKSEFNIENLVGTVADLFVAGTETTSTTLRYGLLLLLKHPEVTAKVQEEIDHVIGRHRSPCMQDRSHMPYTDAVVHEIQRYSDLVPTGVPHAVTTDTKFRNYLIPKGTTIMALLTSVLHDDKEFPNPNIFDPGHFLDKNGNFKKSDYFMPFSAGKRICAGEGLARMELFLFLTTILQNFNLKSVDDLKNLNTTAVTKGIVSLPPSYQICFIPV

Macaca fascicularis = species: Macaca fascicularis; assay: Antagonist activity at cynomolgus monkey CGRP receptor
[11] = Stability of the compound in pH 3 solution at 50 degC assessed as loss of purity after 1 week; assay type: physicochemical; conditions: read-out: Drug degradation
[12] = Tmax in cynomolgus monkey at 0.013 mg/kg, sc; assay type: ADME, organism-based, Macaca fascicularis; conditions: in vivo
[13] = Thermodynamic solubility of the compound at pH 7.4; assay type: physicochemical; conditions: buffer, read-out: Therm_solubility
[14] = Half life in cynomolgus monkey at 0.013 mg/kg, sc; assay type: ADME, organism-based, Macaca fascicularis; conditions: in vivo
hERG (KCNH2) = hERG (KCNH2) (Homo sapiens, UniProt Q12809); assay: Inhibition of human ERG at 300 uM relative to control
Chain of hERG (KCNH2) (Q12809 whole entry): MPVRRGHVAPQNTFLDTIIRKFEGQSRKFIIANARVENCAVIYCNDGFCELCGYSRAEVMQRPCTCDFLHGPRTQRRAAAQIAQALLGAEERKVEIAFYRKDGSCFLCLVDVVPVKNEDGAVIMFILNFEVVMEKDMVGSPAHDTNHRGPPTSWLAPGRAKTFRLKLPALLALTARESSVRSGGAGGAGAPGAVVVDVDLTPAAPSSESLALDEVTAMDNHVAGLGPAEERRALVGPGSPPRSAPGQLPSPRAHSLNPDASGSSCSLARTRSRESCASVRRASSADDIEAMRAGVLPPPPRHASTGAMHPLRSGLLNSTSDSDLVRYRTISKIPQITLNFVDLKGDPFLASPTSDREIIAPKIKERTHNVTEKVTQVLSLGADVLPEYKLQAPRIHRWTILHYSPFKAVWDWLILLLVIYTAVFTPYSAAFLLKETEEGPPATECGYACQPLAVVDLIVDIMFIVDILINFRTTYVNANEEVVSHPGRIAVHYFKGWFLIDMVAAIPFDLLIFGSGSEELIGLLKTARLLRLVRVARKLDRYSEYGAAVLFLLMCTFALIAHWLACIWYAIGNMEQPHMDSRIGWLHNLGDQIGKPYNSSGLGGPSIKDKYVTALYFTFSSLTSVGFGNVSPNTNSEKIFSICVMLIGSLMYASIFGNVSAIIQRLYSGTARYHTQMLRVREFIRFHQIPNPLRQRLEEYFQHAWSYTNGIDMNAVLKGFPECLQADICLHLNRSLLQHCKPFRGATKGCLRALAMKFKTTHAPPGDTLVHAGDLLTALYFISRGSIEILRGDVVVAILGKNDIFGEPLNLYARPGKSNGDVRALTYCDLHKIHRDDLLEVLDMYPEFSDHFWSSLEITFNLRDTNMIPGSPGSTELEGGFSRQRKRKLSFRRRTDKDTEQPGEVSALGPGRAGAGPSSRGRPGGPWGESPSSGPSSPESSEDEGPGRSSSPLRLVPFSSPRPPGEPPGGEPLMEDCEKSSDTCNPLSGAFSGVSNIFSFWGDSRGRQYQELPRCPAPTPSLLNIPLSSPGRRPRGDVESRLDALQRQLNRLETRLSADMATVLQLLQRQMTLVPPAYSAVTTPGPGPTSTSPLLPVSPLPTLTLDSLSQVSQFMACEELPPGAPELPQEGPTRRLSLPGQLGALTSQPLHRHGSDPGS

[15] = Efflux ratio of apparent permeability in MDCK cells; assay type: ADME, cell-based, Canis lupus familiaris; conditions: dog
[16] = Half life in dog hepatocytes; assay type: ADME, cell-based, Canis lupus familiaris, Hepatocyte
[17] = Solubility of the compound at pH 5.7 using amorphous form of sample; assay type: physicochemical; conditions: buffer
[18] = Clearance in dog at 0.5 mg/kg, iv; assay type: ADME, organism-based, Canis lupus familiaris; conditions: in vivo
[19] = Thermodynamic solubility of the compound at pH 6; assay type: physicochemical; conditions: buffer, read-out: Therm_solubility
[20] = Apparent permeability across apical to basolateral side in MDCK cells; assay type: ADME, cell-based, Canis lupus familiaris; conditions: dog
[21] = Tmax in cynomolgus monkey at 0.5 mg/kg, sc; assay type: ADME, organism-based, Macaca fascicularis; conditions: in vivo
[22] = Tmax in rat at 1 mg/kg, sc; assay type: ADME, organism-based; conditions: in vivo
[23] = Protein binding in cynomolgus monkey plasma by high-throughput dialysis method; assay type: ADME, cell-free, Macaca fascicularis; conditions: read-out: PPB (converted)
[24] = Protein binding in dog plasma by high-throughput dialysis method; assay type: ADME, cell-free, Canis lupus familiaris; conditions: read-out: PPB (converted)
[25] = molecular target: Calcitonin-gene-related peptide receptor, CALCRL/RAMP1 (Homo sapiens, UniProt O60894+Q16602); assay: Antagonist activity at human CGRP receptor in human SK-N-MC cells assessed as inhibition of CGRP-induced cAMP production preincubated for 30 mins followed by CGRP addition and measured after 30 mins by HTRF assay; assay type: functional, cell-based
[26] = Solubility of the compound at pH 4 using amorphous form of sample; assay type: physicochemical; conditions: buffer
[27] = molecular target: Amylin receptor AMY1, CALCR/RAMP1 (Homo sapiens) (UniProt P30988+O60894); assay: Antagonist activity at human amylin-1 receptor; assay type: protein-complex assay
PXR (NR1I2) = molecular target: T3, PXR (NR1I2) (Homo sapiens, UniProt O75469); assay: Transactivation of PXR (unknown origin) assessed as induction of CYP450 at 3 uM relative to control; assay type: ADME; conditions: read-out: FC
T3 sequence (O75469 whole entry): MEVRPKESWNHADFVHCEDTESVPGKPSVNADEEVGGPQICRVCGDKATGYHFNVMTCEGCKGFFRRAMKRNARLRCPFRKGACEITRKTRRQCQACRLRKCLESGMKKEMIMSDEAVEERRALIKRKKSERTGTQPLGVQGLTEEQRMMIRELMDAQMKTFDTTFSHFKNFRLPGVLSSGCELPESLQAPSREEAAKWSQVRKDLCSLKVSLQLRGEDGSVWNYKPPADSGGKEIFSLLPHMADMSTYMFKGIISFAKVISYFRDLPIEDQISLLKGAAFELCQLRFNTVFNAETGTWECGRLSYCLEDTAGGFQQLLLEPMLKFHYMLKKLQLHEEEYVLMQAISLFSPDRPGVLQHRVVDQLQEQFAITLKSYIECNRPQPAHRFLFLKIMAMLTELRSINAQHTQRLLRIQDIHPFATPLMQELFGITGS

[28] = Binding affinity to cynomolgus monkey CGRP receptor; set-up: species or system Macaca fascicularis
[29] = Half life in rat at 2 mg/kg, iv; assay type: ADME, organism-based; conditions: in vivo

Cc1cc(C[C@@H](NC(=O)N2CCC3(CC2)OC(=O)Nc2ncccc23)C(=O)N[C@@H](CC2CCNCC2)C(=O)N2CCN(c3ccncc3)CC2)cc2cn[nH]c12 [HTL-0022562]
Activity [1]: Non-Toxic | half-life [2]: > 5 h | Vd [3]: 1 L/kg | Vd [4]: 0.3 L/kg | Vd [5]: 0.4 L/kg | pKb [6]: < 5.7 | EC50 [7]: 900 nM | bioavailability [8]: 68% | clearance [9]: 2 mL/min/kg | bioavailability [10]: 117% | IC50 (Cytochrome P450 2C8): > 50100 nM | pKb (Macaca fascicularis): 10.5 | degraded at 168 h [11]: 0.4% | Tmax [12]: 0.8 h | solubility thermodynamic [13]: 2460 µM (≈ 1880 µg/mL) | half-life [14]: 3.5 h | inhibition at 300 µM (hERG (KCNH2)): 6% | efflux ratio [15]: > 2.7 | half-life [16]: > 5 h | solubility [17]: 115 mg/mL (≈ 151 mM) | clearance [18]: 10 mL/min/kg | solubility thermodynamic [19]: 2920 µM (≈ 2230 µg/mL) | Papp A→B [20]: 0.8 ×10⁻⁶ cm/s | Tmax [21]: 0.8 h | Tmax [22]: 0.7 h | fraction unbound [23]: 0.69 | fraction unbound [24]: 0.77 | pKb [25]: 10.2 | solubility [26]: 174 mg/mL (≈ 228 mM) | pKb [27]: < 6.3 | fold induction at 3 µM (PXR (NR1I2)): 2.3 | pKi [28]: 11.3 | half-life [29]: 4.7 h
